# According to ChEMBL document CHEMBL1129429, “Structure-activity relationships for the binding of arylpiperazines and arylbiguanides at 5-HT3 serotonin receptors” (J Med Chem, 1996):
# Tests used:
# [1] = target: Serotonin 3 (5-HT3) receptor; experiment: Compound was tested for the inhibition of [3H]GR-65630 binding to 5-hydroxytryptamine 3 receptor expressed in NG 108-15 cells; assay type: cell-based
# Oryctolagus cuniculus = species on record: Oryctolagus cuniculus; experiment: Minimal effective dose for its 5-HT3 -Stimulant potency in rabbit bladder preparation.; assay type: functional
# Rattus norvegicus [2] = species on record: Rattus norvegicus; experiment: Compound tested for its 5-HT3 -Stimulant potency in rat relative to compound 6 ( Value = 1); assay type: functional
# Rattus norvegicus [3] = species on record: Rattus norvegicus; experiment: Compound tested for its 5-HT3 -Stimulant potency in rat relative to compound 6 ( Value = 1); Range 0.5-1.3; assay type: functional
# Rattus norvegicus [4] = species on record: Rattus norvegicus; experiment: Compound tested for its 5-HT3 -Stimulant potency in rat relative to compound 6 ( Value = 1); range 0.3-0.6; assay type: functional
Structure (SMILES),Ki ([1]; read-out: Ki),other results
Clc1ccc(N2CCNCC2)cc1,2.16 µM,–
N=C(N)Nc1ccccn1,> 10 µM,–
NC=Nc1cccc(Cl)c1,> 10 µM,–
Cc1cccc(N2CCN(C)CC2)n1,0.56 µM,–
COc1ccc(N2CCNCC2)c(C)c1,0.66 µM,–
C[N+]1(C)CCN(c2cccc(Cl)c2)CC1,1.45 µM,–
N=C(N)NCCc1ccc(Cl)cc1,0.243 µM,–
NCCNC(=O)c1cccc(Cl)c1,> 10 µM,–
CNCCc1cccc(Cl)c1,> 10 µM,–
N=C(N)NCCc1ccccc1Cl,0.15 µM,–
CN(C)C(=N)N=C(N)Nc1cccc(Cl)c1,> 10 µM,–
NCCC(=O)Nc1cccc(Cl)c1,> 10 µM,–
CN(C)CCc1cccc(Cl)c1,> 10 µM,–
NC(=O)Nc1cccc(Cl)c1,> 10 µM,–
COc1ccc(N2CCNCC2)c(OC)c1,> 10 µM,–
N=C(N)NCc1cccc(Cl)c1,1.2 µM,–
NCCCCc1cccc(Cl)c1,> 10 µM,–
Clc1cccc(CC2=NCCN2)c1,> 10 µM,–
N=C(N)NC(=N)Nc1cccc(Cl)c1,0.017 µM,Min effective dose (Oryctolagus cuniculus): 0.0066 mg/kg; Relative potency (Rattus norvegicus [2]): 1

Structure (SMILES),Ki ([1]; read-out: Ki),other results
NC(N)=Nc1cccc(Cl)c1,0.035 µM,Min effective dose (Oryctolagus cuniculus): 0.15 mg/kg; Relative potency (Rattus norvegicus [3]): 0.74
c1ccc(C2CCNCC2)cc1,> 10 µM,–
NCCc1cccc(Cl)c1,> 10 µM,–
FC(F)(F)c1cccc(N2CCNCC2)c1,1.39 µM,–
c1ccc2c(N3CCNCC3)cccc2c1,0.175 µM,–
c1ccc2cc(N3CCNCC3)ccc2c1,0.032 µM,Min effective dose (Oryctolagus cuniculus): 0.03 mg/kg; Relative potency (Rattus norvegicus [2]): <0.02
CN1CCN(c2ccc3ccccc3n2)CC1,–,Ki [1]: 0.003 µM
Cc1cccc(NC(N)=NC(=N)N)c1,0.78 µM,–
Cc1ccc(NC(=N)N=C(N)N)cc1,> 10 µM,–
Cc1cccc(NC(=N)N)c1,6.52 µM,–
COc1ccccc1C1(O)CCNCC1,> 10 µM,–
NCCCc1cccc(Cl)c1,> 10 µM,–
COc1ccc(Cl)cc1/N=C(\N)N=C(N)N,0.126 µM,–
C[N+]1(C)CCN(c2cccc(C(F)(F)F)c2)CC1,> 10 µM,–
NCCCNc1cccc(Cl)c1,> 10 µM,–
Cc1ccc(NC(N)=NC(=N)N)cc1Cl,0.225 µM,–
N=C(N)NC(=O)Nc1cccc(Cl)c1,1.25 µM,–
N=C(N)Cc1cccc(Cl)c1,1.2 µM,–
NC(N)=Nc1ccc2ccccc2c1,0.025 µM,Min effective dose (Oryctolagus cuniculus): 0.015 mg/kg; Relative potency (Rattus norvegicus [2]): 1

Structure (SMILES),Ki ([1]; read-out: Ki),other results
N=C(N)Nc1ccc(Cl)cc1,0.32 µM,–
NC(N)=Nc1ccccc1Cl,0.19 µM,–
N=C(N)/N=C(\N)Nc1cccc([N+](=O)[O-])c1,0.22 µM,–
N=C(N)NC(=N)Nc1ccccc1Cl,0.062 µM,–
N=C(N)NC(=N)Nc1ccc2ccccc2c1,0.012 µM,Min effective dose (Oryctolagus cuniculus): 0.01 mg/kg; Relative potency (Rattus norvegicus [2]): 0.5
COc1cccc(NC(=N)N)c1,1.6 µM,–
N=C(N)NCCc1cccc(Cl)c1,0.04 µM,–
NC(N)=Nc1cccc(C(F)(F)F)c1,5.7 µM,–
Clc1cccc(N2CCNCC2)n1,0.015 µM,–
COc1ccc(N2CCNCC2)cc1,1.64 µM,–
COc1ccc(Cl)cc1N1CCNCC1,0.04 µM,–
c1ccc2nc(N3CCCCC3)ccc2c1,> 10 µM,–
COc1ccccc1N1CCNCC1,2.5 µM,–
N=C(N)NC(=N)Nc1ccc(Cl)cc1 [4-CHLOROPHENYLBIGUANIDE],0.2 µM,–
Clc1cccc(N2CCNCC2)c1 [CHLOROPHENYLPIPERAZINE],0.062 µM,Relative potency (Rattus norvegicus [2]): <0.02
N=C(N)NC(=N)Nc1ccccc1 [PHENYL BIGUANIDE],1.2 µM,Min effective dose (Oryctolagus cuniculus): 0.01 mg/kg; Relative potency (Rattus norvegicus [4]): 0.45
N=C(N)Nc1ccccc1 [PHENYLGUANIDINE],2.34 µM,–
c1ccc(N2CCNCC2)cc1 [PHENYLPIPERAZINE],3 µM,–
N=C(N)Nc1cccnc1 [PYRAXININE],2.91 µM,–
